Numbered stars: 1 amine (or outer) side, 2 acyl side, 3 side chain; on linkers, the order of the positions; unused ones are H or OH. Side chains are listed from the residue outwards. Peptide text beside a SMILES is read from it. * marks the point of attachment. C18 diacid = O=C(O)CCCCCCCCCCCCCCCCC(=O)*; C16 diacid = O=C(O)CCCCCCCCCCCCCCC(=O)*; γGlu = O=C(O)[C@H](CCC(=O)[*:2])N[*:1]; AEEA = NCCOCCOCC(=O)O
Columns and labels:
glucagon receptor = biological target: T1, glucagon receptor (Homo sapiens, UniProt P47871); test: Assay (I) Glucagon activity (cAMP biosensor, FLIPR); type: cell-based
T1 construct: expressed in transfected cells
T1 sequence (P47871 26-477): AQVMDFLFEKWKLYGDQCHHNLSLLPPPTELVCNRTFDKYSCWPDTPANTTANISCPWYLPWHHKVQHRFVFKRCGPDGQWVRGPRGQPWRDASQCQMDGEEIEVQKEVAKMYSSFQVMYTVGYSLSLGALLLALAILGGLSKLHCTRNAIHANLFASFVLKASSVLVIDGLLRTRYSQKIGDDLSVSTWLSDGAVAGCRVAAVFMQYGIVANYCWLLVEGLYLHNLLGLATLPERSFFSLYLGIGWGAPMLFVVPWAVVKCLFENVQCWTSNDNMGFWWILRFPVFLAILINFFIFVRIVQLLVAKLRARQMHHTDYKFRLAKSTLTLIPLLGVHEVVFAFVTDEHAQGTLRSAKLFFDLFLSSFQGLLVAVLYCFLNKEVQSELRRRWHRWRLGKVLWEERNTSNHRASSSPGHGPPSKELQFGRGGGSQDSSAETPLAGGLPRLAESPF

[1] = Assay (XI) Pharmacokinetic study in minipigs; type: in vivo, Göttingen minipigs; conditions: both sexes, Göttingen, minipig, plasma, iv, i.v. administration, terminal half-life, read-out: iv PK minipig [T½] (converted)
Experimental: Buffer: • 50 mM Dinatriumphosphatdihydrat • 184 mM Propylenglycol • 58 mM Phenol • pH adjusted to 8.15 with H3PO4. In cases where pH was adjusted to 8.15 after re-suspension of analogues, 0.2 M NaOH was used. Assay (XI) Pharmacokinetic Study in Minipigs
This is done in a pharmacokinetic (PK) study, whereamong other parameters the terminal half-life and the clearance of the derivative in question is determined. Increasing the terminal half-life and decreasing the clearance means that the compound of study is eliminated slower from the body.
Male or female Göttingen minipigs were obtained from Ellegaard Göttingen Minipigs (Dalmose, Denmark) approximately 7-14 months of age and weighing from approximately 16-35 kg were used in the studies. The minipigs were housed either individually (pigs with permanent catheters) or in a group and fed restrictedly once or twice daily with SDS minipig diet (Special Diets Services, Essex, UK). In some studies two permanent central venous catheters were implanted in vena cava caudalis or cranialis in each animal after at least 2 weeks of acclimatisation. […] On each dosing occasion these pigs were instrumented with a venflon in one ear vein through which the derivatives were dosed. Blood sampling was done by venipuncture in v. jugularis or v. cava cranialis
The animals were either unfasted or fasted for approximately 18 h before dosing and from 0 to 4 h after dosing, but had ad libitum access to water during the whole period.
Intravenous injections (the volume corresponding to usually 2-3 nmol/kg, for example 0.1 ml/kg) of the compounds were given through one catheter or through the venflon, and blood was sampled at predefined time points for up till 13 days post dosing (preferably through the other catheter or by venipuncture). Blood samples (for example 0.8 ml) were collected in tubes with EDTA buffer (8 mM) (sometimes aprotinin 500 KIU/ml blood was added) and then centrifuged at 4° C. and 1942 G for 10 minutes. […] Based on these measurements, time-plasma concentration profiles for the compound of study are plotted and a so-called non-compartmental pharmacokinetic analysis of the data is performed in WinNonlin v. 5.0 or Phoenix v. 6.2 (Pharsight Inc., Mountain View, Calif., USA) or other relevant software for PK analysis. For most compounds, the terminal part of the plasma-concentration profiles will be linear when drawn in a semi-logarithmic plot, reflecting that after the initial distribution, drug is removed from the body at a constant fractional rate. The rate (lambda Z or is equal to minus the slope of the terminal part of the plot. From this rate, also the terminal half-life may be calculated, as t½=ln(2)/λz (see, e.g., Johan Gabrielsson and Daniel Weiner: Pharmacokinetics and Pharmacodynamic Data Analysis. Concepts & Applications, 3rd Ed., Swedish Pharmaceutical Press, Stockholm (2000)).
Clearance is defined as the dose (D) divided by area under the curve (AUC) on the plasmaconcentration versus time profile (Rowland, M and Tozer T N: Clinical Pharmacokinetics: Concepts and Applications, 3rd edition, 1995 Williams Wilkins)

[2] = Assay (X) Chemical stability assessment by RP-UPLC; type: physicochemical; conditions: pH 8.15, 14 days at 37° C. vs 5° C., 333 μM

Compound | EC50 (glucagon receptor) [nM] | half-life [1] [h] | Chemical stability [Purity loss/14 days 37 C.] [2] [%]
CC(C)C[C@H](NC(=O)[C@H](CC(=O)O)NC(=O)[C@H](CC(C)C)NC(=O)[C@H](Cc1ccc(O)cc1)NC(=O)[C@H](CCCNC(=N)N)NC(=O)[C@H](CO)NC(=O)[C@H](Cc1ccc(O)cc1)NC(=O)[C@H](CC(=O)O)NC(=O)[C@H](CO)NC(=O)[C@@H](NC(=O)[C@H](Cc1ccccc1)NC(=O)[C@@H](NC(=O)CNC(=O)[C@H](CCC(N)=O)NC(=O)[C@H](CO)NC(=O)[C@@H](N)Cc1c[nH]cn1)[C@@H](C)O)[C@@H](C)O)C(=O)N[C@@H](CCCNC(=N)N)C(=O)N[C@@H](CCCNC(=N)N)C(=O)N[C@@H](C)C(=O)N[C@@H](CCC(N)=O)C(=O)N[C@@H](CC(=O)O)C(=O)N[C@@H](Cc1ccccc1)C(=O)N[C@H](C(=O)N[C@@H](CCCCNC(=O)CC[C@H](NC(=O)CC[C@H](NC(=O)COCCOCCNC(=O)COCCOCCNC(=O)CC[C@H](NC(=O)CCCCCCCCCCCCCCC(=O)O)C(=O)O)C(=O)O)C(=O)O)C(=O)N[C@@H](Cc1c[nH]c2ccccc12)C(=O)N[C@@H](CC(C)C)C(=O)N[C@@H](CC(C)C)C(=O)N[C@@H](CO)C(=O)N[C@H](C(=O)O)[C@@H](C)O)C(C)C [Example 25, N^ε24-[(4S)-4-carboxy-4-[[(4S)-4-carboxy-4-[[2-[2-[2-[[2-[2-[2-[[(4S)-4-carboxy-4-(15-carboxypentadecanoylamino)butanoyl]amino]ethoxy]ethoxy]acetyl]amino]ethoxy]ethoxy]acetyl]amino]butanoyl]amino]butanoyl]-[Arg^12,Leu^16,Lys^24,Leu^27,Ser^28]-Glucagon] (H-HSQGTFTSDYSRYLDLRRAQDFVK([γGlu-γGlu-AEEA-AEEA-γGlu-C16 diacid])WLLST-OH) | 0.067 | 59.6 | 
CC(C)C[C@H](NC(=O)[C@H](Cc1c[nH]c2ccccc12)NC(=O)[C@H](CCCCNC(=O)CC[C@H](NC(=O)COCCOCCNC(=O)COCCOCCNC(=O)CC[C@H](NC(=O)CC[C@H](NC(=O)CCCCCCCCCCCCCCCCC(=O)O)C(=O)O)C(=O)O)C(=O)O)NC(=O)[C@@H](NC(=O)[C@H](Cc1ccccc1)NC(=O)[C@H](CCC(=O)O)NC(=O)[C@H](CCC(N)=O)NC(=O)[C@H](C)NC(=O)[C@H](CCCNC(=N)N)NC(=O)[C@H](CCCNC(=N)N)NC(=O)[C@@H](NC(=O)[C@H](CC(=O)O)NC(=O)[C@H](CC(C)C)NC(=O)[C@H](Cc1ccc(O)cc1)NC(=O)[C@H](CCCCN)NC(=O)[C@H](CO)NC(=O)[C@@H](NC(=O)[C@H](CC(=O)O)NC(=O)[C@H](CO)NC(=O)[C@@H](NC(=O)[C@H](Cc1ccccc1)NC(=O)[C@@H](NC(=O)CNC(=O)[C@H](CCC(N)=O)NC(=O)[C@H](CO)NC(=O)[C@@H](N)Cc1c[nH]cn1)[C@@H](C)O)[C@@H](C)O)C(C)C)[C@@H](C)O)C(C)C)C(=O)N[C@@H](CC(C)C)C(=O)N[C@@H](CO)C(=O)N[C@H](C(N)=O)[C@@H](C)O [Example 61, N^ε24-[(4S)-4-carboxy-4-[[2-[2-[2-[[2-[2-[2-[[(4S)-4-carboxy-4-[[(4S)-4-carboxy-4-(17-carboxyheptadecanoylamino)butanoyl]amino]butanoyl]amino]ethoxy]ethoxy]acetyl]amino]ethoxy]ethoxy]acetyl]amino]butanoyl]-[Val10,Thr16,Glu21,Lys24,Leu27,Ser28]-Glucagon amide] (H-HSQGTFTSDVSKYLDTRRAQEFVK([γGlu-AEEA-AEEA-γGlu-γGlu-C18 diacid])WLLST-NH2) | 0.156 |  | 6.2
CC(C)C[C@H](NC(=O)[C@H](Cc1c[nH]c2ccccc12)NC(=O)[C@H](CCCCNC(=O)COCCOCCNC(=O)CC[C@H](NC(=O)CC[C@H](NC(=O)COCCOCCNC(=O)CC[C@H](NC(=O)CCCCCCCCCCCCCCCCC(=O)O)C(=O)O)C(=O)O)C(=O)O)NC(=O)[C@@H](NC(=O)[C@H](Cc1ccccc1)NC(=O)[C@H](CC(=O)O)NC(=O)[C@H](CCC(N)=O)NC(=O)[C@H](C)NC(=O)[C@H](CCCNC(=N)N)NC(=O)[C@H](CCCNC(=N)N)NC(=O)[C@@H](NC(=O)[C@H](CC(=O)O)NC(=O)[C@H](CC(C)C)NC(=O)[C@H](Cc1ccc(O)cc1)NC(=O)[C@H](CCCCN)NC(=O)[C@H](CO)NC(=O)[C@H](Cc1ccc(O)cc1)NC(=O)[C@H](CC(=O)O)NC(=O)[C@H](CO)NC(=O)[C@@H](NC(=O)[C@H](Cc1ccccc1)NC(=O)[C@@H](NC(=O)CNC(=O)[C@H](CCC(N)=O)NC(=O)[C@H](CO)NC(=O)[C@@H](N)Cc1c[nH]cn1)[C@@H](C)O)[C@@H](C)O)[C@@H](C)O)C(C)C)C(=O)N[C@@H](CC(C)C)C(=O)N[C@@H](CO)C(=O)N[C@H](C(=O)O)[C@@H](C)O [Example 40, N^ε24-[2-[2-[2-[[(4S)-4-carboxy-4-[[(4S)-4-carboxy-4-[[2-[2-[2-[[(4S)-4-carboxy-4-(17-carboxyheptadecanoylamino)butanoyl]amino]ethoxy]ethoxy]acetyl]amino]butanoyl]amino]butanoyl]amino]ethoxy]ethoxy]acetyl]-[Thr16,Lys24,Leu27,Ser28]-Glucagon] | 0.078 |  | 7.5
CC(C)C[C@H](NC(=O)[C@H](Cc1ccc(O)cc1)NC(=O)[C@H](CCCCN)NC(=O)[C@H](CO)NC(=O)[C@@H](NC(=O)[C@H](CC(=O)O)NC(=O)[C@H](CO)NC(=O)[C@@H](NC(=O)[C@H](Cc1ccccc1)NC(=O)[C@@H](NC(=O)CNC(=O)[C@H](CCC(N)=O)NC(=O)[C@H](CO)NC(=O)[C@@H](N)Cc1c[nH]cn1)[C@@H](C)O)[C@@H](C)O)C(C)C)C(=O)N[C@@H](CCC(=O)O)C(=O)N[C@@H](CO)C(=O)N[C@@H](CCCNC(=N)N)C(=O)N[C@@H](CCCNC(=N)N)C(=O)N[C@@H](C)C(=O)N[C@@H](CCC(N)=O)C(=O)N[C@@H](CCC(=O)O)C(=O)N[C@@H](Cc1ccccc1)C(=O)N[C@H](C(=O)N[C@@H](CCCCNC(=O)CC[C@H](NC(=O)CC[C@H](NC(=O)CC[C@H](NC(=O)CC[C@H](NC(=O)CCCCCCCCCCCCCCCCC(=O)O)C(=O)O)C(=O)O)C(=O)O)C(=O)O)C(=O)N[C@@H](Cc1c[nH]c2ccccc12)C(=O)N[C@@H](CC(C)C)C(=O)N[C@@H](CC(C)C)C(=O)N[C@@H](CO)C(=O)N[C@H](C(=O)O)[C@@H](C)O)C(C)C [Example 50, N^ε24-[(4S)-4-carboxy-4-[[(4S)-4-carboxy-4-[[(4S)-4-carboxy-4-[[(4S)-4-carboxy-4-(17-carboxyheptadecanoylamino)butanoyl]amino]butanoyl]amino]butanoyl]amino]butanoy]-[Val10,Glu15,Glu21,Lys24,Leu27,Ser28]-Glucagon] (H-HSQGTFTSDVSKYLESRRAQEFVK([γGlu-γGlu-γGlu-γGlu-C18 diacid])WLLST-OH) | 0.118 |  | 4.8
CC(C)C[C@H](NC(=O)[C@H](Cc1ccc(O)cc1)NC(=O)[C@H](CCCNC(=N)N)NC(=O)[C@H](CO)NC(=O)[C@H](Cc1ccc(O)cc1)NC(=O)[C@H](CC(=O)O)NC(=O)[C@H](CO)NC(=O)[C@@H](NC(=O)[C@H](Cc1ccccc1)NC(=O)[C@@H](NC(=O)CNC(=O)[C@H](CCC(N)=O)NC(=O)[C@H](CO)NC(=O)[C@@H](N)Cc1c[nH]cn1)[C@@H](C)O)[C@@H](C)O)C(=O)N[C@@H](CCC(=O)O)C(=O)N[C@@H](CO)C(=O)N[C@@H](CCCNC(=N)N)C(=O)N[C@@H](CCCNC(=N)N)C(=O)N[C@@H](C)C(=O)N[C@@H](CCC(N)=O)C(=O)N[C@@H](CCC(=O)O)C(=O)N[C@@H](Cc1ccccc1)C(=O)N[C@H](C(=O)N[C@@H](CCCCNC(=O)CC[C@H](NC(=O)CC[C@H](NC(=O)CC[C@H](NC(=O)CC[C@H](NC(=O)CCCCCCCCCCCCCCCCC(=O)O)C(=O)O)C(=O)O)C(=O)O)C(=O)O)C(=O)N[C@@H](Cc1c[nH]c2ccccc12)C(=O)N[C@@H](CC(C)C)C(=O)N[C@@H](CC(C)C)C(=O)N[C@@H](CO)C(=O)N[C@H](C(=O)O)[C@@H](C)O)C(C)C [Example 51, N^ε24-[(4S)-4-carboxy-4-[[(4S)-4-carboxy-4-[[(4S)-4-carboxy-4-[[(4S)-4-carboxy-4-(17-carboxyheptadecanoylamino)butanoyl]amino]butanoyl]amino]butanoyl]amino]butanoyl]-[Arg12,Glu15,Glu21,Lys24,Leu27,Ser28]-Glucagon] (H-HSQGTFTSDYSRYLESRRAQEFVK([γGlu-γGlu-γGlu-γGlu-C18 diacid])WLLST-OH) | 0.148 |  | 5.7

— US9486506B2 (Novo Nordisk A/S, priority 2011, dated 2016)
